In PubChem BioAssay (NCI):
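A five-concentration, 48-hour dose response in 96-well plates underlies each endpoint, interpolated linearly between surrounding concentrations. The concentration for full growth arrest is given as TGI.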

How the values were obtained:
Experiment in all cases: NCI anticancer screen, dose series, 48 h
HOP-92 NSCLC = test system: HOP-92 NSCLC
U251 CNS = test system: U251 CNS
HCT-15 colon = test system: HCT-15 colon
HCC-2998 colon = test system: HCC-2998 colon
M14 melanoma = test system: M14 melanoma
MDA-N = test system: MDA-N
NCI-H226 lung = test system: NCI-H226 lung
MDA-MB-231 breast = test system: MDA-MB-231 breast
SK-MEL-28 melanoma = test system: SK-MEL-28 melanoma
UO-31 renal = test system: UO-31 renal
786-0 renal = test system: 786-0 renal
PC-3 prostate = test system: PC-3 prostate
SN12C renal = test system: SN12C renal
SF-539 CNS = test system: SF-539 CNS
CAKI-1 renal = test system: CAKI-1 renal
OVCAR-4 ovarian = test system: OVCAR-4 ovarian
K-562 leukemia = test system: K-562 leukemia
SF-295 CNS = test system: SF-295 CNS

Row | Structure (SMILES) | TGI (HOP-92 NSCLC) [µM] | TGI (U251 CNS) [µM] | TGI (HCT-15 colon) [µM] | TGI (HCC-2998 colon) [µM] | TGI (M14 melanoma) [µM] | TGI (MDA-N) [µM] | TGI (NCI-H226 lung) [µM] | TGI (MDA-MB-231 breast) [µM] | TGI (SK-MEL-28 melanoma) [µM] | TGI (UO-31 renal) [µM] | TGI (786-0 renal) [µM] | TGI (PC-3 prostate) [µM] | TGI (SN12C renal) [µM] | TGI (SF-539 CNS) [µM] | TGI (CAKI-1 renal) [µM] | TGI (OVCAR-4 ovarian) [µM] | TGI (K-562 leukemia) [µM] | TGI (SF-295 CNS) [µM]
1 | CC1(C)C(=O)C2(C#N)CCC1C2 (centres undefined) | > 100 | > 100 | > 100 | > 100 | > 100 | > 100 | > 100 | > 100 | > 100 | > 100 | > 100 | > 100 | > 100 | > 100 | > 100 | > 100 | > 100 | > 100
2 | COc1ccc(C(=O)c2ccc(-n3c4ccccc4c4ccc5c(c43)C(=O)C=CC5=O)cc2)cc1 | 8.66 | 3.54 | 6.07 | 11.5 | 7.45 | 7.89 | 69.4 | 5.22 | – | 1.07 | 1.3 | 3.3 | 4.01 | 5.78 | 0.366 | 6.37 | > 100 | 17.1
3 | c1ccc2c3nnc(c2c1)SCCSCCCSCCS3 | 87.7 | > 100 | > 100 | > 100 | > 100 | > 100 | > 100 | 86.1 | > 100 | > 100 | > 100 | > 100 | > 100 | 40.6 | > 100 | 25.8 | > 100 | > 100
4 | O=C1N[C@@H]2c3c(Br)sc(Br)c3C(=O)[C@@H]2N1 | 12.5 | 7.03 | 11.1 | 3.42 | 16.5 | 5.04 | 91.2 | 10.9 | 12.3 | 9.93 | 6.4 | 10.4 | 14.5 | 8.88 | 8.56 | 16.8 | > 100 | 29.5
5 | COc1nc2c(c(=O)n1C)NC(C(O)C(O)CO)C=N2 (centres undefined) | > 10 | > 10 | > 10 | > 10 | > 10 | > 10 | > 10 | > 10 | > 10 | > 10 | > 10 | > 10 | > 10 | > 10 | > 10 | > 10 | > 10 | > 10
6 | CC(OCc1ccccc1)C(NC(=O)C1CSSCC(NC(=O)C(Cc2ccccc2)NC(=O)OCc2ccccc2)C(=O)NC(Cc2ccccc2)C(=O)NC(Cc2cn(C=O)c3ccccc23)C(=O)NC(CCCCNC(=O)OCc2ccccc2)C(=O)NC(C(C)OCc2ccccc2)C(=O)N1)C(N)=O (centres undefined) | > 100 | > 70.7 | > 100 | > 32.5 | > 79.1 | > 100 | > 100 | 37.3 | > 100 | > 100 | > 86.9 | > 52.4 | > 100 | > 100 | > 100 | > 79.3 | > 100 | > 100
7 | Oc1[nH]c2ccccc2c1N=NC(=S)N1CCCC1 | 39.3 | 22.6 | 4.29 | 23.6 | 8.44 | 38.8 | 1.88 | 55.7 | > 100 | 11.3 | 17.3 | 57.8 | 31.9 | 10.7 | 10.8 | 32.2 | > 42.7 | 17.1
8 | O=c1c2ncn(CCCl)c2n(-c2ccccc2)c(=S)n1-c1ccccc1 | > 100 | > 100 | > 100 | > 100 | > 100 | > 100 | > 100 | > 100 | > 100 | > 100 | > 100 | > 100 | > 100 | > 100 | > 100 | > 100 | > 100 | > 100
9 | N#CC(c1ccccc1)N(CCc1ccccc1)C(=O)Oc1ccccc1 (centres undefined) | 95.7 | > 100 | > 100 | > 100 | > 100 | > 100 | > 100 | > 100 | > 100 | > 100 | > 100 | > 100 | > 100 | > 100 | > 100 | > 100 | > 100 | > 100
10 | COC(=O)c1ccc(NCc2cc(O)ccc2O)cc1O | 29 | 24.2 | 26.5 | 26.7 | 31.7 | 23.5 | 46.3 | 25.7 | 30 | 5.61 | 21.5 | > 32.3 | 29.1 | 6.31 | 17.7 | 26.2 | > 79.3 | 27.2
11 | O=C(CCc1cccc(O)c1)NCCc1cccc(OCc2ccccc2)c1 | 33.8 | 32 | 49.3 | 31.7 | 30.2 | 39 | 31.5 | 40.7 | 31.8 | 33.4 | 67.5 | 31.8 | 45.1 | 30.7 | > 72.2 | 63.6 | 71.3 | 32.9
12 | Nc1cnc2c(c1)c(=O)nc1n2CCS1 | > 100 | > 100 | > 100 | > 100 | – | > 100 | > 100 | > 100 | > 100 | > 100 | > 100 | > 100 | > 100 | > 100 | > 100 | > 100 | > 100 | > 100
13 | CCCCCCCCCC(=O)CC(=O)c1c(O)cc(O)cc1O | 44.7 | > 75 | 43.8 | 31.4 | 39 | 38 | 36.2 | > 75 | 72.8 | 31.7 | > 75 | 41.8 | 37.3 | 43.3 | > 75 | 35.8 | 36.3 | 68.2
14 | COc1ccc(-n2c(=O)n(C)c(=O)n2-c2c(C)c(C)c(C)c(C)c2C)cc1 | > 100 | > 100 | > 100 | > 100 | > 100 | > 100 | > 100 | > 100 | > 100 | > 100 | > 100 | > 100 | > 100 | > 100 | > 100 | > 100 | > 100 | > 100
15 | CC(=O)O/C=C\OC1CCCC1 | > 100 | > 100 | > 100 | > 100 | > 100 | > 100 | > 100 | > 100 | > 100 | > 100 | > 100 | > 100 | – | > 100 | > 100 | > 100 | > 100 | > 100
16 | CCOC(=O)c1c(N2CCOCC2)[nH]c(=O)c(C(c2ccc(Cl)c([N+](=O)[O-])c2)c2c(O)c(C(=O)OCC)c(N3CCOCC3)[nH]c2=O)c1O | 69.4 | 41.9 | > 100 | > 100 | 58.5 | 70.1 | > 100 | 41.9 | > 100 | 95.5 | > 100 | 50.1 | 51 | 59.7 | > 100 | > 100 | > 100 | > 100
17 | Cc1cc(=O)[nH]c2c3c(ccc12)OC(C)(C)C=C3 | > 100 | > 47.4 | > 100 | > 96.1 | > 100 | 4.29 | > 33.6 | > 100 | > 100 | > 100 | > 62.7 | > 100 | > 49.6 | > 23.8 | > 100 | > 100 | > 100 | > 80.4
18 | CNC(=O)OCCN1c2ccccc2Sc2ccccc21 | > 100 | > 100 | > 100 | > 100 | > 100 | > 100 | > 100 | 89.5 | > 100 | > 100 | > 100 | > 100 | > 100 | > 100 | > 100 | > 100 | > 100 | > 100
19 | CN(C)/C=N/S(=O)(=O)c1nn2c(C=O)c(-c3ccc([N+](=O)[O-])cc3)nc2s1 | 53.5 | 41.6 | > 49.6 | > 43.4 | > 32.4 | 17 | > 95.1 | > 81.5 | 18.3 | 13.2 | 9.03 | > 51.9 | 22.6 | 71.4 | 7.13 | 39.7 | > 27.3 | > 100
20 | NC(N)=NS(=O)(=O)c1ccc(NNc2c3ccccc3nc3c(C(=O)Nc4ccc(S(N)(=O)=O)cc4)cccc23)cc1 | 73.8 | 83.9 | > 100 | > 100 | > 100 | > 100 | > 100 | > 100 | > 100 | > 100 | > 100 | > 100 | > 100 | > 100 | > 100 | > 100 | 69.9 | > 100
21 | COc1ccc2c(c1)c1c3c(ccc4ncn2c43)N(CCN(C)C)CCN=1 | 4.07 | 1.41 | 1.31 | 1.35 | 2.41 | 1.59 | 2.89 | 1.76 | 2.45 | 1.74 | 1.3 | 1.62 | 1.26 | 1.1 | 9.13 | 1.16 | 0.705 | 1.62
22 | O=C(N/C(=C/c1ccc(Cl)cc1)c1nc2ccccc2c(=O)n1Nc1ccc([N+](=O)[O-])cc1[N+](=O)[O-])c1ccccc1 | > 100 | > 100 | > 100 | > 100 | > 100 | > 100 | > 100 | > 100 | > 100 | > 100 | > 100 | > 100 | > 100 | > 100 | > 100 | > 100 | > 100 | > 100
23 | COc1ccc2[nH]c3c(C)c4cnccc4c(C)c3c2c1 | > 10 | 3.24 | 3.4 | 3.35 | 2.54 | 3.43 | 9.27 | 6.77 | 3.44 | – | 1.64 | > 10 | > 10 | 3.3 | > 10 | 5.17 | > 10 | > 10
24 | COc1ccc(C2C(Cl)C(=O)N2NC(=O)c2ccc(N)cc2)cc1OC (centres undefined) | 5.07 | 7.28 | 21.3 | 19.9 | 22.6 | 23.5 | 38.3 | 39.7 | 17.6 | 25.7 | 8.59 | 25.7 | 24.5 | 21.8 | 6.84 | 19 | 16.5 | 18.4
25 | Cc1ccccc1NC(=O)C(=O)Cc1cnc2ccccc2n1 | > 100 | > 100 | > 100 | > 100 | > 100 | > 100 | > 100 | > 100 | > 100 | > 100 | > 100 | > 100 | > 100 | > 100 | > 100 | > 100 | > 100 | > 100
26 | Cc1cc(C)c2c(c1)C(=O)C1(C2)Cc2c(ccc(C)c2C)C1=O (centres undefined) | > 100 | > 100 | > 100 | > 100 | > 100 | > 100 | > 100 | > 100 | > 100 | > 100 | > 100 | > 100 | > 100 | > 100 | > 100 | > 100 | > 100 | > 100
